Laboratory results reported in patent publication US8394355B2, “Use of UTP for the diagnosis of stenoses and other conditions of restricted blood flow” (P2 science Aps, priority 2009, dated 2013).

How the values were obtained:
leg blood flow = settings: cited from earlier work; for relative vasoactive potency (rank order): only for blood flows around 3.5 Lmin^−1
[1] = system: pulmonary and systemic circulation of healthy female pigs; experiment: Systemic (central intravenous) nucleotide infusion in pigs, hemodynamic response; type: in vivo; settings: for increase in CO (cardiac output): FIG. 7b; for increase in HR from baseline: FIG. 7c; for decrease in SV (stroke volume): FIG. 7d; for MAP lowered by, from baseline: p<0.05, FIG. 7a; for infusion rate at target MAP: target ~50% reduction in baseline MAP, right atrium infusion
Protocol: In the present study, the hemodynamic response in the pulmonary and systemic circulation was tested, as well as the effect of central intravenous infusions of ATP, ADP, ADO, and UTP on the heart.
Infusion rates were aimed at exerting a pronounced systemic response in the lowering of arterial blood pressure, but avoiding a total circulatory collapse.
Methods: 10 healthy female pigs (Department of Experimental Medicine and Surgery, University of Copenhagen, Denmark) bred as a combination of the Danish Landrace (⅓) and Yorkshire (⅔), with a medium weight of 41±2 kg were investigated.
Mean arterial blood pressure (MAP) was obtained from the catheter in arcus aorta with the transducer (Pressure Monitoring Kit, Baxter, Deerfield, Ill., USA) positioned at the level of the heart. The left femoral artery was subsequently exposed and an ultrasound doppler probe attached for peripheral femoral artery flow measurements (CM-4000, Cardiomed, Norway). MAP, HR and peripheral flow were monitored and data continuously collected using a PowerLab system (Adinstruments, Australia). Cardiac Output (CO) was determined in triplicates by thermodilution, following an injection of 10 ml of cooled saline solution. Blood samples were withdrawn from catheters in aorta and the right atrium at baseline and at steady state when MAP had decreased maximally or by ˜50%. Calculated variables were: stroke volume of the heart (SV=CO/HR), pulmonary vascular resistance (PVR=(MPAP−PCWP)/CO), systemic vascular resistance (SVR=(MAP−MRAP)/CO), leg vascular conductance (LVC=LBF/(MAP−MRAP)), and arterial (aorta) and mixed venous (pulmonary artery) oxygen content (Hb*1.34*O2 saturation). In the calculation of LVC, MRAP was used as an estimate of mean femoral venous pressure (MFVP), as MRAP was found in a series of measurements to equal MFVP, as estimated in 10 supine pigs. As a potential estimate for myocardial oxygen demand the rate pressure product (RPP=MAP*HR) was also calculated.
Drug infusions: Each animal was administered the nucleotides ATP, UTP, ADP (Sigma, St. Louis, Mo., USA) and ADO (Item Development AB, Stocksund, Sweden), through the internal jugular vein in the right atrium, in random order following blinded allocation. The nucleotides and ADO were prepared by dissolving in saline so as to achieve the target concentration of ATP (40±0.5 μmol/min), ADP (43±8 μmol/min), UTP (up to 1,600 μmol/min), and ADO (73±7 μmol/min). The nucleotides were infused in increasing dosages at 2 min intervals aiming at reducing MAP by maximally ˜50%. Thereafter, that specific infusion rate was maintained for ˜3-5 min. After each intervention the animal rested for ˜30 min, allowing resting cardiovascular variables to be reestablished. Thereafter, a new cycle of nucleotide infusion was administered. In the present study we aimed to allow the drugs to reduce MAP by ˜50%, but without inducing a hemodynamic and circulatory collapse, to simulate a pronounced state of systemic vasodilation, as may be observed for instance in a shock condition.

[2] = system: infarct area during acute myocardial infarction; experiment: ADP or UTP infusion during myocardial infarction in pigs (unpublished); type: in vivo; settings: infused during acute myocardial infarction, unpublished results
Description: This is clearly in contrast to previous findings, but is more clinically relevant as most cardiac patients are older. […] This conclusion is also supported by another study by the present inventor in pigs where ADP or UTP was infused during myocardial infarction. […] Therefore, the previous assumptions in patent application WO 2007/065437 relating to the regulation of purinergic receptor activity to modulate vascular tone, particularly for treating hemodynamic conditions by overriding vasoconstriction activity, which could potentially have clinical applications for treatment with UTP agonists or antagonists, is incorrect.

SMILES	relative vasoactive potency (rank order) (leg blood flow)	increase in CO (cardiac output) [1]	increase in HR from baseline [1]	decrease in SV (stroke volume) [1]	PVR reached during titration ([1]; dose dependent increase)	decrease in LBF (leg blood flow) from baseline ([1]; p<0.05)	decrease in SVR (systemic vascular resistance) from baseline ([1]; p<0.05)	increase in PVR ([1]; p<0.05)	MAP lowered by, from baseline [1]	infusion rate at target MAP [1]	effect on infarct area [2]	blood flow increase, % of maximum in the leg during hard exercise (leg blood flow; local infusion)	increase in LVC (leg vascular conductance) from baseline ([1]; p<0.05)	decrease in PVR (pulmonary vascular resistance) from baseline ([1]; pig, in vivo)
Nc1ncnc2c1ncn2[C@@H]1O[C@H](COP(=O)(O)OP(=O)(O)O)[C@@H](O)[C@H]1O [ADP]	2.7	not alter CO	26.6±4.6%	21.1±5.6%	7.3±1.2 Wood Unit	34.9±10.2%	49.5±2.0%	156.7±38.3%	48.4±1.2%	43.2 ± 7.7 µmol/min	diminished it	–	–	–
Nc1ncnc2c1ncn2[C@@H]1O[C@H](COP(=O)(O)O)[C@@H](O)[C@H]1O [AMP]	1.7	–	–	–	–	–	–	–	–	–	–	–	–	–
Nc1ncnc2c1ncn2[C@@H]1O[C@H](COP(=O)(O)OP(=O)(O)OP(=O)(O)O)[C@@H](O)[C@H]1O [ATP]	100	35.1±6.9%	23.0±5.7%	did not significantly change SV	–	22.7±4.2%	61.6±2.1%	–	47.4±1.7%	40.2 ± 0.5 µmol/min	–	85%	44.7±8.7%	37.8±4.9%
